Test results published in ChEMBL document CHEMBL1201862, “PubChem BioAssay data set” (2004).
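All cell lines were grown in 96-well plates and treated with compound for 48 hours. The concentration for 50% growth inhibition is given as GI50.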 Activity calls are given as the source filed them. Rule as the data show it: active = GI50 up to about 1.1 µM and inactive = higher.

How the values were obtained:
Assay in all cases: DTP human tumour cell line panel, 48 h
786-0 = system: 786-0
A498 = system: A498
ACHN = system: ACHN
HCT-116 = system: HCT-116
HOP-62 = system: HOP-62
IGROV-1 = system: IGROV-1
NCI-H226 = system: NCI-H226
NCI-H23 = system: NCI-H23
OVCAR-5 = system: OVCAR-5
OVCAR-8 = system: OVCAR-8
RPMI-8226 = system: RPMI-8226
SF-539 = system: SF-539
SK-MEL-2 = system: SK-MEL-2
SN12C = system: SN12C
U-251 = system: U-251
UACC-257 = system: UACC-257
UO-31 = system: UO-31
EKVX = system: EKVX

Measured: GI50

Cn1cnc(CCc2ccccc2)n1
inactive: 786-0 > 100 µM | A498 > 100 µM | ACHN > 100 µM | HCT-116 > 100 µM | HOP-62 > 100 µM | IGROV-1 > 100 µM | NCI-H226 > 100 µM | NCI-H23 > 100 µM | OVCAR-5 > 100 µM | OVCAR-8 > 100 µM | RPMI-8226 > 100 µM | SF-539 > 100 µM | SK-MEL-2 > 100 µM | SN12C > 100 µM | U-251 > 100 µM | UACC-257 > 100 µM | UO-31 > 100 µM

O=C(NCCCCCCNC(=O)NC1OCC(O)C(O)C1O)NC1OCC(O)C(O)C1O (configuration not stated)
inactive: 786-0 > 100 µM | ACHN > 100 µM | EKVX > 100 µM | HCT-116 > 100 µM | HOP-62 > 100 µM | IGROV-1 > 100 µM | NCI-H226 > 100 µM | NCI-H23 > 100 µM | OVCAR-5 > 100 µM | OVCAR-8 > 100 µM | RPMI-8226 > 100 µM | SF-539 > 100 µM | SK-MEL-2 > 100 µM | SN12C > 100 µM | U-251 > 100 µM

CCOC(=O)C1=C(C)Nc2ccccc2S1
inactive: 786-0 > 100 µM | A498 > 100 µM | ACHN > 100 µM | EKVX 14.3 µM | HCT-116 > 100 µM | HOP-62 > 100 µM | IGROV-1 > 100 µM | NCI-H226 > 100 µM | NCI-H23 > 100 µM | OVCAR-5 > 100 µM | RPMI-8226 48.3 µM | SF-539 > 100 µM | SK-MEL-2 > 100 µM | SN12C > 100 µM | U-251 > 100 µM | UACC-257 > 100 µM | UO-31 > 100 µM

O=C(CC1S/C(=N\c2ccccc2Cl)NC1=O)Nc1ccc(Cl)cc1 (configuration not stated)
inactive: 786-0 > 100 µM | A498 > 100 µM | ACHN > 100 µM | EKVX > 100 µM | HCT-116 > 100 µM | HOP-62 > 100 µM | IGROV-1 > 100 µM | NCI-H23 > 100 µM | OVCAR-5 > 100 µM | SF-539 > 100 µM | SK-MEL-2 > 100 µM | SN12C > 100 µM | U-251 > 100 µM | UACC-257 > 100 µM | UO-31 > 100 µM

CC1(OCc2ccccc2)C(=O)N2C1NCC2(C)C (configuration not stated)
inactive: 786-0 > 100 µM | A498 > 100 µM | ACHN > 100 µM | EKVX > 100 µM | HCT-116 > 100 µM | HOP-62 > 100 µM | IGROV-1 > 100 µM | NCI-H226 > 100 µM | NCI-H23 > 100 µM | OVCAR-8 > 100 µM | RPMI-8226 > 100 µM | SF-539 > 100 µM | SK-MEL-2 > 100 µM | SN12C > 100 µM | U-251 > 100 µM | UACC-257 > 100 µM | UO-31 86.5 µM

NCCCNCCCCN(CCCN)/[N+]([O-])=N\O
inactive: 786-0 > 100 µM | ACHN > 100 µM | EKVX > 100 µM | HCT-116 > 100 µM | HOP-62 > 100 µM | IGROV-1 > 100 µM | NCI-H226 > 100 µM | NCI-H23 > 100 µM | OVCAR-5 > 100 µM | OVCAR-8 > 100 µM | RPMI-8226 29.8 µM | SF-539 > 100 µM | SK-MEL-2 > 100 µM | SN12C > 100 µM | UACC-257 > 100 µM | UO-31 > 100 µM

COc1nc(NC2OC(COC(C)=O)C(OC(C)=O)C(OC(C)=O)C2OC(C)=O)c(/N=C/C=N/c2c(NC3OC(COC(C)=O)C(OC(C)=O)C(OC(C)=O)C3OC(C)=O)nc(OC)[nH]c2=O)c(=O)[nH]1 (configuration not stated)
inactive: 786-0 > 100 µM | A498 > 100 µM | ACHN > 100 µM | EKVX > 100 µM | HCT-116 > 100 µM | HOP-62 > 100 µM | IGROV-1 > 100 µM | NCI-H226 > 100 µM | NCI-H23 > 100 µM | OVCAR-5 > 100 µM | OVCAR-8 > 100 µM | RPMI-8226 > 100 µM | SF-539 > 100 µM | SN12C > 100 µM | U-251 > 100 µM | UACC-257 > 100 µM | UO-31 > 100 µM

Cc1cc(C)c(C(=O)O)c(SSc2cc(C)cc(C)c2C(=O)O)c1
inactive: 786-0 > 100 µM | A498 > 100 µM | ACHN > 100 µM | EKVX > 100 µM | HOP-62 > 100 µM | NCI-H226 > 100 µM | NCI-H23 > 100 µM | OVCAR-5 > 100 µM | OVCAR-8 > 100 µM | SF-539 > 100 µM | SK-MEL-2 > 100 µM | SN12C > 100 µM | U-251 > 100 µM | UACC-257 > 100 µM | UO-31 > 100 µM

ClCCC[Si]12OCCN(CCO1)CCO2
inactive: 786-0 > 100 µM | A498 > 100 µM | ACHN > 100 µM | EKVX > 100 µM | HCT-116 > 100 µM | IGROV-1 > 100 µM | NCI-H226 > 100 µM | NCI-H23 > 100 µM | OVCAR-5 > 100 µM | OVCAR-8 > 100 µM | RPMI-8226 > 100 µM | SF-539 > 100 µM | SK-MEL-2 > 100 µM | SN12C > 100 µM | U-251 > 100 µM | UACC-257 > 100 µM | UO-31 > 100 µM

O=C(CC(=O)C(=O)Nc1ccccc1)CC(c1ccccc1)c1c(O)c2ccccc2oc1=O (configuration not stated)
inactive: 786-0 > 100 µM | A498 > 100 µM | ACHN > 100 µM | EKVX > 100 µM | HCT-116 > 100 µM | IGROV-1 > 100 µM | NCI-H226 > 100 µM | OVCAR-5 > 100 µM | SF-539 > 100 µM | SK-MEL-2 > 100 µM | UO-31 > 100 µM

C=C1C(OC(=O)/C=C/c2ccccc2)CC(OC(C)=O)C2(C)C1CC1CC(OC(C)=O)C(C)=C(C(OC(C)=O)C2OC(C)=O)C1(C)C (configuration not stated)
inactive: 786-0 > 100 µM | A498 31.6 µM | HCT-116 3.79 µM | HOP-62 > 100 µM | IGROV-1 > 100 µM | NCI-H226 > 100 µM | OVCAR-5 > 100 µM | OVCAR-8 > 100 µM | RPMI-8226 3.13 µM | SF-539 > 100 µM | SN12C > 100 µM | U-251 > 100 µM | UO-31 > 100 µM

N#Cc1ccc(Sc2nc3ccccc3[nH]2)cc1
inactive: 786-0 > 100 µM | ACHN > 100 µM | EKVX > 100 µM | HOP-62 > 100 µM | IGROV-1 86.7 µM | NCI-H226 36.6 µM | NCI-H23 > 100 µM | OVCAR-5 42.8 µM | OVCAR-8 > 100 µM | SF-539 > 100 µM | SK-MEL-2 > 100 µM | SN12C > 100 µM | U-251 > 100 µM | UACC-257 > 100 µM | UO-31 > 100 µM

Cc1cc(C)nc(NS(=O)(=O)c2ccc(NC(=O)c3ccc(Cl)c4c(Nc5ccc(S(=O)(=O)Nc6cc(C)on6)cc5)c5ccccc5nc34)cc2)n1
inactive: 786-0 17 µM | A498 15.3 µM | ACHN 18.9 µM | EKVX 19 µM | HCT-116 20.4 µM | HOP-62 16.3 µM | IGROV-1 20.1 µM | NCI-H226 17.5 µM | NCI-H23 14.5 µM | OVCAR-5 21 µM | OVCAR-8 15.5 µM | RPMI-8226 17.9 µM | SF-539 18.7 µM | SN12C 17.9 µM | U-251 15.3 µM | UACC-257 18.2 µM | UO-31 17.6 µM

CSc1nc(SC)c2c(C#N)n[nH]c2n1
inactive: 786-0 > 100 µM | A498 > 100 µM | ACHN > 100 µM | EKVX > 100 µM | HOP-62 > 100 µM | IGROV-1 > 100 µM | NCI-H226 > 100 µM | NCI-H23 > 100 µM | OVCAR-8 > 100 µM | RPMI-8226 > 100 µM | SF-539 > 100 µM | SK-MEL-2 > 100 µM | SN12C > 100 µM | U-251 > 100 µM | UACC-257 > 100 µM | UO-31 > 100 µM

CCN1c2ccccc2C(C(SC)S(=O)(=O)c2ccc(C)cc2)c2c1[nH]c(=O)n(C)c2=O (configuration not stated)
inactive: 786-0 > 100 µM | A498 > 100 µM | EKVX > 100 µM | HCT-116 > 100 µM | HOP-62 > 100 µM | IGROV-1 > 100 µM | NCI-H226 > 100 µM | NCI-H23 > 100 µM | OVCAR-5 > 100 µM | OVCAR-8 > 100 µM | RPMI-8226 > 100 µM | SF-539 > 100 µM | SK-MEL-2 71.1 µM | SN12C > 100 µM | U-251 > 100 µM | UACC-257 > 100 µM | UO-31 > 100 µM

CC(C)c1cc(C(C)C)c(S(=O)(=O)NN)c(C(C)C)c1
inactive: 786-0 > 100 µM | A498 > 100 µM | ACHN > 100 µM | EKVX > 100 µM | HCT-116 > 100 µM | HOP-62 > 100 µM | IGROV-1 > 100 µM | NCI-H23 > 100 µM | OVCAR-5 > 100 µM | OVCAR-8 > 100 µM | RPMI-8226 > 100 µM | SF-539 > 100 µM | SK-MEL-2 > 100 µM | SN12C > 100 µM | U-251 > 100 µM | UACC-257 > 100 µM

COc1ccc(/C=C2\N=C(c3ccccc3)N(Nc3nnc(NN4C(=O)/C(=C/c5ccc(OC)cc5)N=C4c4ccccc4)c4ccccc34)C2=O)cc1
inactive: 786-0 56.9 µM | A498 > 100 µM | ACHN > 100 µM | EKVX > 100 µM | HCT-116 94.4 µM | HOP-62 62.7 µM | IGROV-1 > 100 µM | NCI-H226 96.4 µM | NCI-H23 > 100 µM | OVCAR-5 > 100 µM | OVCAR-8 > 100 µM | RPMI-8226 26.4 µM | SF-539 70.6 µM | SN12C 68.5 µM | U-251 94.8 µM | UACC-257 > 100 µM
